Results taken from publication PMC11843629, “Development of ketobenzothiazole-based peptidomimetic TMPRSS13 inhibitors with low nanomolar potency” (Journal of Enzyme Inhibition and Medicinal Chemistry, 2025).
Where two headings read alike, the source gives them in different places.

Experiments:
WT TMPRSS13 = molecular target: T1, WT TMPRSS13 (Homo sapiens, UniProt Q9BYE2); assay: In cellulo inhibitory activity in TMPRSS13-transfected Vero cells; assay type: cell-based; settings: 24 h; for remaining activity at 10 µM: 10 µM compound, media, relative to DMSO, read-out: residual activity of TMPRSS13; for IC50: Boc-RVRR-AMC, read-out: IC50 in cellulo TMPRSS13 inhibition
T1 construct: the full length TMPRSS13 (TMPRSS13-WT); expressed in transfected cells; host or cells: Vero C1008 (Vero E6) cells
T1 sequence (Q9BYE2 326-567 isoform Q9BYE2-6 limits assumed): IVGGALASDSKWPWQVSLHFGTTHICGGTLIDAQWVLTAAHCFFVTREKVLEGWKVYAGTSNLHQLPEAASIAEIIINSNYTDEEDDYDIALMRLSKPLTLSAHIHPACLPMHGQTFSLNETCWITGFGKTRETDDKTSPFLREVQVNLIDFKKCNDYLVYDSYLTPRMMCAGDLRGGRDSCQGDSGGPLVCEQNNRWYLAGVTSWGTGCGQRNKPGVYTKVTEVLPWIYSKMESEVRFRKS
Description: Vero C1008 cells were grown in 12-well plates (200K cells per well) and transfected for 24 h via Lipofectamine 3000 (Life Technologies) with one of the following plasmids: pcDNA3.1 (empty vector, EV), pcDNA3.1-TMPRSS13 WT or pcDNA3.1-TMPRSS13-AFAAS-6His. The cells were then washed 2 times with PBS before HCell-100 medium (Wisent) containing the indicated concentrations of each compound or the control condition (0.01% DMSO) was added. After 24 h of incubation with the compounds, the medium was harvested, and 90 μL was placed in 96-well plate wells with 10 µL of 200 μM Boc-RVRR-AMC. Fluorescence was acquired at room temperature in an FLx800 TBE microplate reader, with excitation at 360 nm and emission at 460 nm. The background was then subtracted by removing the signal recorded with the cells transfected with the empty vector (pcDNA3.1). Proteolytic activity results are represented as a percentage of the DMSO-treated condition. The IC50 was calculated via nonlinear regression of the compound concentration relative to the velocity.

matriptase [1] = molecular target: T2, matriptase (Homo sapiens, UniProt Q9Y5Y6); set-up: method as in Shapira et al. 2022 Nature; settings: ref Shapira et al. 2022 Nature; cited from earlier work
T2 construct: made in house
T2 sequence (Q9Y5Y6 1-855): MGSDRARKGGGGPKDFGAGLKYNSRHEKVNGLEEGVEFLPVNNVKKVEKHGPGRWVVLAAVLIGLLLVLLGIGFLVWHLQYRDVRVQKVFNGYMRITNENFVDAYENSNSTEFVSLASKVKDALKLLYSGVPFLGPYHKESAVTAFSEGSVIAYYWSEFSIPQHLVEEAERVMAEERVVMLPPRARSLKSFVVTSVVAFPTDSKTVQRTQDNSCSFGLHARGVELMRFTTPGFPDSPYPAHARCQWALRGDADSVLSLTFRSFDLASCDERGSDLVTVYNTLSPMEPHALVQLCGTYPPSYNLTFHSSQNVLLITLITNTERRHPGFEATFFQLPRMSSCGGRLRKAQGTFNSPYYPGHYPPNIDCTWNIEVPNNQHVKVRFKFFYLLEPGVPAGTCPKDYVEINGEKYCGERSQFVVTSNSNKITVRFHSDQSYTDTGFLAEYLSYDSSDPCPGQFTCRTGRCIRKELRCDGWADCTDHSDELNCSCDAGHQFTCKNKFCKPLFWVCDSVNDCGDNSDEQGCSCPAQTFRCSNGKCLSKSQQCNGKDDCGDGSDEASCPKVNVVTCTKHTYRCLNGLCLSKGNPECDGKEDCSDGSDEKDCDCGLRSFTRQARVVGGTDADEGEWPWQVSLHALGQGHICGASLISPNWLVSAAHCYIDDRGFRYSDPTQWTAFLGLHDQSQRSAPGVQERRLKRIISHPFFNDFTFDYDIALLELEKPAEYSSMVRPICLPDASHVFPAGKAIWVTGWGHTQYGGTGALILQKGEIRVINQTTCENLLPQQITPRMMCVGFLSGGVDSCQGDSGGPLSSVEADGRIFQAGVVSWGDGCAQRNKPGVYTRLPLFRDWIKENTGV

thrombin [2] = molecular target: T3, thrombin (Homo sapiens, UniProt P00734); set-up: method as in Shapira et al. 2022 Nature; settings: ref Shapira et al. 2022 Nature; cited from earlier work
T3 construct: purchased MilliporeSigma

furin [3] = molecular target: T4, furin (Homo sapiens, UniProt P09958); set-up: method as in Shapira et al. 2022 Nature; settings: ref Shapira et al. 2022 Nature; cited from earlier work
T4 construct: purchased R&D Systems

matriptase [4] = molecular target: T2, matriptase; assay: In vitro inhibition assay, matriptase, Boc-QAR-AMC; assay type: biochemical; settings: Morrison Ki equation, tight-binding
Description: (§1) Recombinant TMPRSS13-AFAAS-6His (this study) and matriptase[34] were expressed and purified as described. Recombinant human furin, Factor Xa (R&D Systems) and thrombin (MilliporeSigma) were obtained from commercial sources. Assays were performed in a buffer composed of 50 mM HEPES pH 7.4, 1 mM β-mercaptoethanol, 1 mM CaCl2 and 500 μg/ml BSA for furin and 50 mM HEPES pH 7.4, 150 mM NaCl and 0.1% BSA for other proteases. Assays were performed at room temperature using fluorogenic substrates (Boc-RVRR-AMC for furin and TMPRSS13, Boc-QAR-AMC for other proteases). The enzymatic activity was measured via fluorescence (excitation at 360 nm and emission at 460 nm) at room temperature using an HTX Synergy microplate reader (Agilent). Kis for TMPRSS13 and Factor Xa (FXa) were derived from IC50 dose–response curves using the Cheng-Prusoff equation[35] for reversible competitive inhibitors. For matripase, a plot of the enzyme velocity as a function of the inhibitor concentration was fitted with nonlinear regression analysis via the Morrison Ki equation[36] for competitive tight-binding inhibitors.

thrombin [5] = molecular target: T3, thrombin; assay: In vitro inhibition assay, thrombin, Boc-QAR-AMC; assay type: biochemical
Description: as §1

furin [6] = molecular target: T4, furin; assay: In vitro inhibition assay, furin, Boc-RVRR-AMC; assay type: biochemical
Description: as §1

T4 sequence (P09958 108-794): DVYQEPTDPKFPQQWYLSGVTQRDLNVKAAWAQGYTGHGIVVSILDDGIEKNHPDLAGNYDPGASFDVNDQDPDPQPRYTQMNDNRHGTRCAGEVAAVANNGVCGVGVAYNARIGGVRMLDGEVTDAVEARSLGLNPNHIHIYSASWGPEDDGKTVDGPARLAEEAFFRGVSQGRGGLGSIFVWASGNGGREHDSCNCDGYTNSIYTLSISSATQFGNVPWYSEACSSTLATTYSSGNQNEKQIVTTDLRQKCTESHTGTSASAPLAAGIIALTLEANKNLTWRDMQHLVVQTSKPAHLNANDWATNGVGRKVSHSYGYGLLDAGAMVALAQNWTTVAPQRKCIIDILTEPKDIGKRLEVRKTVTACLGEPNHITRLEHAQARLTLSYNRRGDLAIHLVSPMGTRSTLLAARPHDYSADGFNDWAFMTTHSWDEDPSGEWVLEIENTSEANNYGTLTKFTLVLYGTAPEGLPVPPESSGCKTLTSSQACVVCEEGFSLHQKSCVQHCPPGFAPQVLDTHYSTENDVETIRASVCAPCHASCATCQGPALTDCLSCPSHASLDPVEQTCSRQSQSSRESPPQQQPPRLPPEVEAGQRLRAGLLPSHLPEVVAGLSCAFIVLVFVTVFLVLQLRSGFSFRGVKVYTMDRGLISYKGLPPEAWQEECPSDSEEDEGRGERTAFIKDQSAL

| Structure (SMILES) | remaining activity at 10 µM (WT TMPRSS13) [%] | IC50 (WT TMPRSS13) [µM] | Ki (matriptase [1]) [µM] | Ki Matriptase (matriptase [1]) | Ki (thrombin [2]) [µM] | Ki (furin [3]) [µM] | Ki (matriptase [4]) [µM] | Ki Matriptase (matriptase [4]) | Ki (thrombin [5]) [µM] | Ki (furin [6]) [µM] | remaining activity at 10 µM (WT TMPRSS13; Vero) [%] |
| --- | --- | --- | --- | --- | --- | --- | --- | --- | --- | --- | --- |
| N=C(N)NCCCCC(=O)N[C@@H](CCC(N)=O)C(=O)N[C@@H](Cc1ccccc1)C(=O)N[C@@H](CCCNC(=N)N)C(=O)c1nc2ccccc2s1 [Compound N-0130, (H)-RQFR-Kbt] | 18.4 | 0.192 | 0.00013 ± 3e-05 | subnanomolar | 8.23 ± 1.55 | > 10 |  |  |  |  |  |
| N=C(N)NCCCCC(=O)N[C@@H](CCC(N)=O)C(=O)N[C@@H](CCc1ccccc1)C(=O)N[C@@H](CCCNC(=N)N)C(=O)c1nc2ccccc2s1 [Compound N-0430, (H)-RQhFR-Kbt] |  | 0.053 |  |  |  |  | 0.00028 ± 5e-05 | subnanomolar | > 10 | > 10 | 9 |
